What all share (type): in vivo
In test [1] the test system is Myzus persicae. The experiment in a line: Myzus persicae oral test. The following applies: 120 h, 20 ppm, oral uptake, after 5 days, read-out: efficacy. The procedure, abridged:
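Aphids of mixed ages imbibe, through parafilm, compound solution (acetone stock, water-diluted) combined with sugar-supplemented IPL41 medium to 200 μl. Efficacy read at day 5 as percent killed, 0% meaning no deaths.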

Another test deals with Meloidogyne incognita. Briefly: Meloidogyne incognita test. To be noted: 336 h, lettuce, after 14 days, read-out: nematicidal efficacy (formation of galls). A digest of the protocol: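 Gall formation on lettuce roots scored after 14 days: 0% means gall count equals untreated control, 100% means none. Sand vessels held the compound (acetone concentrate diluted in water), southern root-knot nematode egg/larvae suspension and lettuce seeds.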

Test [2] concerns Myzus persicae. The experiment in a line: Myzus persicae spray test (Chinese cabbage leaf discs). To be noted: foliar, 120 h, after 5-6 days, read-out: efficacy. The procedure, abridged: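 Formulated compound in acetone/dimethylformamide, diluted in water with 1000 ppm emulsifier, was sprayed onto Brassica pekinensis leaf discs carrying mixed-stage Myzus persicae. Percent mortality was read 5-6 days later (0% = no aphids killed, 100% = all killed).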

In the case of `Cn1nc(C(=O)NS(=O)(=O)c2ccccc2Br)nc1-c1c(F)cccc1F` [Example 158], the values for the pest or weed control at 20 ppm in the test on Myzus persicae [1] and in the test on Meloidogyne incognita were 100% and 90%, respectively. Also, the pest or weed control at 500 g/ha in the test with Myzus persicae [2] was determined as 100%.
As to `CCSc1ccccc1S(=O)(=O)NC(=O)c1cn(C)c(-c2c(F)cccc2F)n1` [Example 169], the pest or weed control at 20 ppm stood at 100% with Myzus persicae [1] and 90% in the test with Meloidogyne incognita. Moreover, the pest or weed control at 500 g/ha in the test on Myzus persicae [2] was 100%.
As to `CC(C)Nc1cccc(F)c1S(=O)(=O)NC(=O)c1cn(C)c(-c2c(F)cccc2F)n1` [Example 178], the pest or weed control at 20 ppm in the test with Myzus persicae [1] and with Meloidogyne incognita was 100% each time. Moreover, in the test with Myzus persicae [2], the pest or weed control at 500 g/ha came out at 90%.
As for `CCSc1cccc(Cl)c1S(=O)(=O)NC(=O)c1cn(C)c(-c2c(F)cccc2F)n1` [Example 179], the pest or weed control at 20 ppm turned out to be 100% with Myzus persicae [1] and 90% with Meloidogyne incognita. Further, in the test with Myzus persicae [2], the pest or weed control at 500 g/ha is 90%.
With `Cc1cc(S(=O)(=O)NC(=O)c2cn(C)c(-c3c(F)cccc3F)n2)c(C)s1` [Example 182], the pest or weed control at 20 ppm in the test with Myzus persicae [1] and in the test on Meloidogyne incognita was 100% throughout. The pest or weed control at 500 g/ha in the test with Myzus persicae [2] was 90%.
`Cn1cc(C(=O)NS(=O)(=O)c2cscc2Br)nc1-c1c(F)cccc1F` [Example 183]: the pest or weed control at 20 ppm in the test on Myzus persicae [1] and in the test with Meloidogyne incognita was 100% throughout. For the same compound, in the test on Myzus persicae [2], the pest or weed control at 500 g/ha is 100%.
On to `Cc1ccsc1S(=O)(=O)NC(=O)c1cn(C)c(-c2c(F)cccc2F)n1` [Example 184], for which the pest or weed control at 20 ppm in the test on Myzus persicae [1] and with Meloidogyne incognita was 100% each time. Besides, the pest or weed control at 500 g/ha in the test with Myzus persicae [2] came out at 90%.
As for `CC(C)S(=O)(=O)NC(=O)c1nc(-c2ccccc2Cl)n(C)c1Cl` [Example 206], the pest or weed control at 20 ppm worked out at 90% in the test on Myzus persicae [1] and 100% in the test on Meloidogyne incognita. For the same compound, the pest or weed control at 500 g/ha in the test with Myzus persicae [2] came to 100%.
On to `Cn1cc(C(=O)NS(=O)(=O)c2ccccc2Cl)nc1-c1ccccc1Cl` [Example 225], for which the pest or weed control at 20 ppm in the test with Myzus persicae [1] worked out at 100%; with Meloidogyne incognita it was 80%. The pest or weed control at 500 g/ha in the test with Myzus persicae [2] turned out to be 100%.
Take `Cc1[nH]c(-c2ccc(Cl)cc2)nc1C(=O)NS(=O)(=O)C(C)C` [Example 235]: the pest or weed control at 20 ppm in the test with Myzus persicae [1] is 100%; with Meloidogyne incognita, 90%. Besides, the pest or weed control at 500 g/ha in the test on Myzus persicae [2] is 100%.
Regarding `Cc1[nH]c(-c2ccccc2Cl)nc1C(=O)NS(=O)(=O)c1ccccc1Cl` [Example 238], the pest or weed control at 20 ppm in the test with Myzus persicae [1] and in the test with Meloidogyne incognita was 100% each time. The pest or weed control at 500 g/ha in the test with Myzus persicae [2] was 100%.
Take `Cc1cc(C(=O)NS(=O)(=O)c2ccccc2Br)nn1-c1c(F)cccc1F` [Example 257]: the results for the pest or weed control at 20 ppm in the test on Myzus persicae [1] and in the test with Meloidogyne incognita were 100% and 90%, respectively. Further, the pest or weed control at 500 g/ha in the test on Myzus persicae [2] was 90%.
On to `O=C(NS(=O)(=O)c1c(Cl)cccc1Cl)c1cc(-c2ncccc2Cl)n(-c2ccccc2Cl)n1` [Example 266], for which the results for the pest or weed control at 20 ppm with Myzus persicae [1] and in the test on Meloidogyne incognita were 100% and 90%, respectively. Besides, the pest or weed control at 500 g/ha in the test on Myzus persicae [2] turned out to be 90%.
`COc1cc(C(=O)NS(=O)(=O)c2c(Cl)cccc2Cl)nn1-c1ccccc1Cl` [Example 270]: the pest or weed control at 20 ppm in the test on Myzus persicae [1] and with Meloidogyne incognita was 100% each time. Moreover, the pest or weed control at 500 g/ha in the test on Myzus persicae [2] was 90%.
With `Cc1cc(C(=O)NS(=O)(=O)c2ccccc2Cl)nn1-c1ccccc1Cl` [Example 271], the pest or weed control at 20 ppm with Myzus persicae [1] and with Meloidogyne incognita was 100% each time. For the same compound, the pest or weed control at 500 g/ha with Myzus persicae [2] is 100%.
For the compound `Cc1ccccc1S(=O)(=O)NC(=O)c1cc(C)n(-c2ccccc2Cl)n1` [Example 272], the pest or weed control at 20 ppm with Myzus persicae [1] and in the test on Meloidogyne incognita was 100% each time. Besides, the pest or weed control at 500 g/ha in the test on Myzus persicae [2] was determined as 100%.
`Cc1cc(C(=O)NS(=O)(=O)c2ccccc2Cl)nn1-c1ncccc1Cl` [Example 273]: the pest or weed control at 20 ppm came out at 100% in the test on Myzus persicae [1] and 90% with Meloidogyne incognita. The pest or weed control at 500 g/ha in the test on Myzus persicae [2] came to 100%.
For `COc1cc(C(=O)NS(=O)(=O)c2ccccc2Cl)nn1-c1ccccc1Cl` [Example 275], the pest or weed control at 20 ppm with Myzus persicae [1] and with Meloidogyne incognita was 100% throughout. The pest or weed control at 500 g/ha with Myzus persicae [2] amounted to 90%.
On to `COc1cc(C(=O)NS(=O)(=O)c2ccccc2Br)nn1-c1ccccc1Cl` [Example 277], for which the values for the pest or weed control at 20 ppm with Myzus persicae [1] and in the test with Meloidogyne incognita were 100% and 90%, respectively. In addition, the pest or weed control at 500 g/ha in the test on Myzus persicae [2] turned out to be 100%.
Take `CCc1ccccc1S(=O)(=O)NC(=O)c1cc(OC)n(-c2ccccc2Cl)n1` [Example 281]: the pest or weed control at 20 ppm with Myzus persicae [1] and with Meloidogyne incognita was 100% throughout. In addition, the pest or weed control at 500 g/ha in the test with Myzus persicae [2] turned out to be 90%.
On to `Cc1cc(C(=O)NS(=O)(=O)c2ccccc2Br)nn1-c1ncccc1Cl` [Example 283], for which the pest or weed control at 20 ppm in the test on Myzus persicae [1] is 100%; in the test on Meloidogyne incognita it was 90%. In the test on Myzus persicae [2], the pest or weed control at 500 g/ha amounted to 100%.
For `CCc1ccccc1S(=O)(=O)NC(=O)c1cc(C)n(-c2ncccc2Cl)n1` [Example 284], the pest or weed control at 20 ppm came to 100% with Myzus persicae [1] and 90% in the test with Meloidogyne incognita. For the same compound, the pest or weed control at 500 g/ha with Myzus persicae [2] was determined as 100%.
Take `Cc1cc(C(=O)NS(=O)(=O)c2ccccc2Cl)nn1-c1ncccc1Br` [Example 295]: the pest or weed control at 20 ppm is 100% in the test on Myzus persicae [1] and 90% in the test with Meloidogyne incognita. In addition, in the test with Myzus persicae [2], the pest or weed control at 500 g/ha stood at 100%.
Regarding `Cc1cc(C(=O)NS(=O)(=O)c2ccccc2Br)nn1-c1ncccc1Br` [Example 296], the pest or weed control at 20 ppm with Myzus persicae [1] and in the test with Meloidogyne incognita was 90% in each case. Further, the pest or weed control at 500 g/ha in the test with Myzus persicae [2] worked out at 90%.
As for `Cn1cc(C(=O)NS(=O)(=O)c2cccc3c2OC(F)(F)C(F)(F)O3)nc1-c1c(F)cccc1F` [Example 312], the pest or weed control at 20 ppm with Myzus persicae [1] is 100%; in the test with Meloidogyne incognita it was 90%. In the test with Myzus persicae [2], the pest or weed control at 500 g/ha is 90%.
As for `Cn1cc(C(=O)NS(=O)(=O)c2cccc3c2OCC3)nc1-c1c(F)cccc1F` [Example 317], the pest or weed control at 20 ppm in the test on Myzus persicae [1] is 100%; in the test with Meloidogyne incognita it was 90%. Also, the pest or weed control at 500 g/ha with Myzus persicae [2] was determined as 90%.
For the compound `Cn1cc(C(=O)NS(=O)(=O)c2cccc(F)c2F)nc1-c1c(F)cccc1F` [Example 320], the pest or weed control at 20 ppm in the test on Myzus persicae [1] stood at 100%; with Meloidogyne incognita, 90%. For the same compound, the pest or weed control at 500 g/ha in the test on Myzus persicae [2] turned out to be 100%.
For the compound `Cn1cc(C(=O)NS(=O)(=O)c2cccc3ccn(C)c23)nc1-c1c(F)cccc1F` [Example 323], the values for the pest or weed control at 20 ppm with Myzus persicae [1] and in the test with Meloidogyne incognita were 100% and 90%, respectively. Further, the pest or weed control at 500 g/ha in the test with Myzus persicae [2] is 100%.
For `Cn1cc(C(=O)NS(=O)(=O)c2cc(Cl)cnc2Cl)nc1-c1c(F)cccc1F` [Example 343], the pest or weed control at 20 ppm in the test with Myzus persicae [1] and in the test with Meloidogyne incognita was 90% in each case. For the same compound, in the test on Myzus persicae [2], the pest or weed control at 500 g/ha is 100%.
Consider `Cc1csc(S(=O)(=O)NC(=O)c2cn(C)c(-c3c(F)cccc3F)n2)c1` [Example 350], for which the pest or weed control at 20 ppm with Myzus persicae [1] and in the test on Meloidogyne incognita was 90% in each case. The pest or weed control at 500 g/ha with Myzus persicae [2] worked out at 100%.
Consider `Cn1cc(C(=O)NS(=O)(=O)c2ccc(Cl)s2)nc1-c1c(F)cccc1F` [Example 352], for which the pest or weed control at 20 ppm in the test on Myzus persicae [1] and with Meloidogyne incognita was 100% in each case. Further, the pest or weed control at 500 g/ha with Myzus persicae [2] is 90%.
Consider `Cn1cc(C(=O)NS(=O)(=O)c2sccc2Br)nc1-c1c(F)cccc1F` [Example 354], for which the figures for the pest or weed control at 20 ppm in the test on Myzus persicae [1] and in the test on Meloidogyne incognita were 100% and 90%, respectively. The pest or weed control at 500 g/ha in the test with Myzus persicae [2] was determined as 100%.
As for `Cc1noc(C)c1S(=O)(=O)NC(=O)c1cn(C)c(-c2c(F)cccc2F)n1` [Example 358], the pest or weed control at 20 ppm in the test on Myzus persicae [1] came out at 100%; in the test with Meloidogyne incognita, 90%. In addition, the pest or weed control at 500 g/ha with Myzus persicae [2] turned out to be 100%.
As for `Cn1cc(C(=O)NS(=O)(=O)c2c(F)cccc2C(F)(F)F)nc1-c1c(F)cccc1F` [Example 371], the pest or weed control at 20 ppm in the test with Myzus persicae [1] came out at 100%; in the test on Meloidogyne incognita it was 90%. The pest or weed control at 500 g/ha in the test on Myzus persicae [2] was determined as 90%.
`Cn1cc(C(=O)NS(=O)(=O)c2c(Cl)cccc2C(F)(F)F)nc1-c1c(F)cccc1F` [Example 372]: the results for the pest or weed control at 20 ppm in the test with Myzus persicae [1] and with Meloidogyne incognita were 100% and 90%, respectively. Also, the pest or weed control at 500 g/ha in the test with Myzus persicae [2] is 100%.
`COc1cccc(OC)c1S(=O)(=O)NC(=O)c1cn(C)c(-c2c(F)cccc2F)n1` [Example 378]: the pest or weed control at 20 ppm in the test on Myzus persicae [1] was determined as 100%; with Meloidogyne incognita, 90%. Besides, the pest or weed control at 100 g/ha in the test with Myzus persicae [2] (100 g/ha) was found to be 90%.
In the case of `COc1ccc(Cl)cc1S(=O)(=O)NC(=O)c1cn(C)c(-c2c(F)cccc2F)n1` [Example 393], the pest or weed control at 20 ppm in the test with Myzus persicae [1] is 100%; in the test on Meloidogyne incognita it was 90%. In addition, the pest or weed control at 500 g/ha in the test with Myzus persicae [2] worked out at 100%.
`CCc1ccc(C)c(S(=O)(=O)NC(=O)c2cn(C)c(-c3c(F)cccc3F)n2)c1` [Example 395]: the pest or weed control at 20 ppm in the test with Myzus persicae [1] and in the test with Meloidogyne incognita was 90% each time. Further, the pest or weed control at 500 g/ha in the test with Myzus persicae [2] is 100%.
Consider `CCCc1ccccc1S(=O)(=O)NC(=O)c1cn(C)c(-c2c(F)cccc2F)n1` [Example 403], for which the pest or weed control at 20 ppm in the test on Myzus persicae [1] came out at 100%; in the test on Meloidogyne incognita, 90%. Also, the pest or weed control at 500 g/ha in the test on Myzus persicae [2] turned out to be 100%.

Values taken from patent US20200288710A1, “SUBSTITUTED SULPHONAMIDES FOR CONTROLLING ANIMAL PESTS” (BAYER CROPSCIENCE AKTIENGESELLSCHAFT, priority 2016, published 2020).
